Some test systems named below: 786-0; CAKI-1; HCT-116; HL-60; NCI-H226; NCI-H23; OVCAR-4; OVCAR-8; RXF 393; SK-MEL-2; SK-MEL-5; SK-OV-3; SNB-19; SNB-75; SR; UO-31; KM12; Hs-578T; NCI/ADR-RES.
Common to all, as to assay: NCI tumour cell line growth inhibition, 48 h

Molecules are shown by their SMILES.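 Method: 48-hour compound exposure of cells in 96-well plates, five concentrations, linear interpolation of endpoints. GI50 is the concentration that inhibits growth by half.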 Calls of active or inactive are those of the source. Cut-off read from the data, not from the text of the source: active = GI50 up to about 1.1 µM and inactive = higher.

Turning to `C#CC(C)(C)Oc1cc(O)c2c(=O)c3ccccc3n(C)c2c1`, the GI50 was 53.3 µM (inactive) with 786-0; > 100 µM (inactive) in the experiment on CAKI-1; > 100 µM (inactive) in the experiment with HCT-116; > 100 µM (inactive) in the experiment on HL-60; > 100 µM (inactive) with NCI-H226; > 100 µM (inactive) in the experiment on NCI-H23. The GI50 in the experiment on OVCAR-4 is > 100 µM (inactive); in the experiment on OVCAR-8 it was 35.8 µM (inactive); in the experiment on RXF 393 it was > 100 µM (inactive); in the experiment with SK-MEL-2, > 100 µM (inactive); in the experiment on SK-MEL-5, > 100 µM (inactive); in the experiment with SK-OV-3 it was > 100 µM (inactive). In addition, the GI50 was > 100 µM (inactive) with SNB-19, 40.4 µM (inactive) in the experiment with SNB-75, 17.3 µM (inactive) in the experiment on SR and > 100 µM (inactive) with UO-31.

Take `Cc1cccc(C)c1NC(=O)C(=O)Nn1c(NN)nc2ccccc2c1=O`: the GI50 in the experiment on 786-0, in the experiment on CAKI-1, in the experiment with HCT-116, in the experiment on HL-60, with KM12 and in the experiment with NCI-H226 was > 100 µM (inactive) throughout. The GI50 in the experiment with NCI-H23, with OVCAR-4, in the experiment on OVCAR-8, with RXF 393, in the experiment on SK-MEL-2 and with SK-MEL-5 was > 100 µM (inactive) in each case. The GI50 in the experiment on SK-OV-3, in the experiment with SNB-19, in the experiment with SNB-75, with SR and with UO-31 was > 100 µM (inactive) each time.

As for `CCOC(=O)C1C(c2ccc(Cl)cc2Cl)NC(c2ccc(C)cc2)C(C(=O)OC)S1(=O)=O` (centres undefined), the GI50 was 60.5 µM (inactive) in the experiment on 786-0; > 100 µM (inactive) in the experiment with CAKI-1; 55.8 µM (inactive) in the experiment on HL-60; > 100 µM (inactive) in the experiment on KM12; 76.4 µM (inactive) in the experiment with NCI-H226; 66.8 µM (inactive) with NCI-H23. Also, the GI50 with OVCAR-4 is > 100 µM (inactive); in the experiment with OVCAR-8, > 100 µM (inactive); in the experiment on RXF 393 it was > 100 µM (inactive); with SK-MEL-2 it was 95.1 µM (inactive); in the experiment on SK-MEL-5 it was 87.5 µM (inactive); in the experiment on SK-OV-3 it was > 100 µM (inactive). Besides, the GI50 in the experiment with SNB-19 is > 100 µM (inactive); in the experiment on SNB-75, 20.1 µM (inactive); with SR, 69 µM (inactive); with UO-31 it was 37.9 µM (inactive).

For `N#Cc1cccc2c1Nc1ccccc1S2`, the GI50 with 786-0 was 55.1 µM (inactive); with CAKI-1, > 100 µM (inactive); in the experiment with HCT-116 it was > 100 µM (inactive); with HL-60, > 100 µM (inactive); in the experiment with KM12, > 100 µM (inactive); in the experiment with NCI-H226, 19.1 µM (inactive). Moreover, the GI50 is > 100 µM (inactive) with NCI-H23; > 100 µM (inactive) in the experiment on OVCAR-4; 79.3 µM (inactive) with OVCAR-8; 32.2 µM (inactive) in the experiment with RXF 393; 87.1 µM (inactive) in the experiment on SK-MEL-2; > 100 µM (inactive) in the experiment with SK-MEL-5. For the same compound, the GI50 in the experiment with SK-OV-3 was > 100 µM (inactive); in the experiment on SNB-19 it was 37.8 µM (inactive); in the experiment on SNB-75, 19.7 µM (inactive); in the experiment on SR, > 100 µM (inactive); with UO-31, > 100 µM (inactive).

In the case of `Cc1ccccc1-n1c(CCl)nc2ccc(Br)cc2c1=O`, the GI50 is 8.17 µM (inactive) in the experiment on 786-0; 1.77 µM (inactive) in the experiment with CAKI-1; 9.53 µM (inactive) in the experiment on HCT-116; 5.77 µM (inactive) in the experiment with HL-60; 13.6 µM (inactive) with KM12; 8.87 µM (inactive) with NCI-H226. The GI50 was 9.91 µM (inactive) with NCI-H23; 14.8 µM (inactive) in the experiment with OVCAR-4; 12.5 µM (inactive) in the experiment on OVCAR-8; 10.2 µM (inactive) in the experiment with RXF 393; 14.6 µM (inactive) with SK-MEL-2; 8.17 µM (inactive) with SK-MEL-5. For the same compound, the GI50 was 29.5 µM (inactive) in the experiment with SK-OV-3; 26.7 µM (inactive) with SNB-19; 12.8 µM (inactive) in the experiment on SNB-75; 3.73 µM (inactive) in the experiment with SR; 14.9 µM (inactive) in the experiment with UO-31.

For the compound `COc1c(I)c(OC)c2c(c1I)O[C@@H]1OCC[C@H]21`, the GI50 with 786-0 was 34.8 µM (inactive); in the experiment on CAKI-1, 0.098 µM (active); in the experiment with HCT-116 it was 35.6 µM (inactive); in the experiment on HL-60, 17.3 µM (inactive); in the experiment on KM12, 29.7 µM (inactive); in the experiment on NCI-H226, 23.6 µM (inactive). Besides, the GI50 in the experiment with NCI-H23 is 30.6 µM (inactive); in the experiment on OVCAR-4, 23.6 µM (inactive); with OVCAR-8, 33 µM (inactive); in the experiment with RXF 393, 37.4 µM (inactive); in the experiment on SK-MEL-2 it was 19.9 µM (inactive); in the experiment with SK-MEL-5 it was 13.7 µM (inactive). Also, the GI50 is 31.8 µM (inactive) in the experiment with SK-OV-3; 77.1 µM (inactive) with SNB-19; 27.2 µM (inactive) in the experiment on SNB-75; 15.7 µM (inactive) with SR; 22.4 µM (inactive) in the experiment on UO-31.

As for `O=C(NCCCCCCCCCCCCNC(=O)c1cccc2ccccc12)c1cccc2ccccc12`, the GI50 with 786-0 was > 44.8 µM (inactive); in the experiment on CAKI-1, 23.3 µM (inactive); with HCT-116 it was > 57.9 µM (inactive); with HL-60, 31.3 µM (inactive); with KM12 it was 97.3 µM (inactive); with NCI-H226 it was > 49.9 µM (inactive). The GI50 with NCI-H23 is > 64.1 µM (inactive); with OVCAR-4, 6.24 µM (inactive); with OVCAR-8, 31.5 µM (inactive); in the experiment on RXF 393, > 100 µM (inactive); in the experiment with SK-MEL-2 it was > 58.1 µM (inactive); in the experiment with SK-MEL-5 it was > 100 µM (inactive). For the same compound, the GI50 in the experiment with SK-OV-3 is > 47.5 µM (inactive); with SNB-19, 45.6 µM (inactive); in the experiment with SNB-75, 26.1 µM (inactive); with SR, 47 µM (inactive); in the experiment with UO-31 it was > 42.7 µM (inactive).

In the case of `CN(C)CCNC(=O)c1ccc2nc3c(nc2c1)C(=O)c1ccccc1-3`, the GI50 in the experiment on 786-0 is 31.8 µM (inactive); in the experiment with CAKI-1, > 100 µM (inactive); in the experiment on HCT-116, 45.9 µM (inactive); in the experiment with HL-60, 19.1 µM (inactive); in the experiment with Hs-578T, 52.2 µM (inactive); in the experiment on KM12 it was 81.8 µM (inactive). The GI50 with NCI-H23 was 48.5 µM (inactive); with OVCAR-4, 32.8 µM (inactive); with OVCAR-8, 36.5 µM (inactive); with RXF 393, 85.5 µM (inactive); in the experiment with SK-MEL-5, 17.9 µM (inactive); in the experiment with SK-OV-3 it was > 100 µM (inactive). The GI50 with SNB-19 was 77.3 µM (inactive); with SNB-75 it was 30.5 µM (inactive); with SR it was 18.1 µM (inactive); in the experiment with UO-31, 40.6 µM (inactive).

For the compound `C=C1CC2OC(=O)C(=C)C2C(O)C2C(=C)CCC12` (centres undefined), the GI50 with 786-0 was 13.4 µM (inactive); with CAKI-1, 5.25 µM (inactive); with HCT-116 it was 3.62 µM (inactive); in the experiment with HL-60, 1.89 µM (inactive); with KM12 it was 10.8 µM (inactive); in the experiment on NCI-H226 it was 20.4 µM (inactive). Moreover, the GI50 in the experiment with NCI-H23 is 12.6 µM (inactive); with OVCAR-8 it was 4.1 µM (inactive); in the experiment on RXF 393 it was 4.05 µM (inactive); with SK-MEL-2 it was 15.7 µM (inactive); with SK-MEL-5 it was 12.2 µM (inactive); with SK-OV-3, 12.4 µM (inactive). The GI50 in the experiment on SNB-19 was 16.2 µM (inactive); in the experiment with SNB-75, 9.86 µM (inactive); with SR, 3.21 µM (inactive); in the experiment on UO-31, 16.1 µM (inactive).

Regarding `N=C(N)C1CN(CCc2c[nH]cn2)C(=O)NC1=O` (centres undefined), the GI50 in the experiment with 786-0, in the experiment with CAKI-1, in the experiment with HCT-116, with HL-60, in the experiment with Hs-578T and with KM12 was > 100 µM (inactive) throughout. Moreover, the GI50 with NCI-H23, with OVCAR-4, with OVCAR-8, with RXF 393, in the experiment with SK-MEL-5 and in the experiment on SK-OV-3 was > 100 µM (inactive) in each case. For the same compound, the GI50 in the experiment on SNB-19, in the experiment with SNB-75, in the experiment on SR and in the experiment with UO-31 was > 100 µM (inactive) in each case.

With `COc1cccc(/C=C2\CCCc3ccccc3C2=O)c1`, the GI50 was 13.1 µM (inactive) in the experiment on 786-0; 23.4 µM (inactive) with CAKI-1; 13.3 µM (inactive) with HCT-116; 13.8 µM (inactive) in the experiment with HL-60; 17.9 µM (inactive) with Hs-578T; 17.6 µM (inactive) in the experiment with KM12. Moreover, the GI50 in the experiment with NCI-H226 is 18.8 µM (inactive); in the experiment with NCI-H23 it was 15.1 µM (inactive); with NCI/ADR-RES it was 17.9 µM (inactive); in the experiment on OVCAR-4 it was 13.5 µM (inactive); in the experiment with OVCAR-8, 19.2 µM (inactive); with SK-MEL-2, 13.8 µM (inactive). Further, the GI50 in the experiment on SK-OV-3 is 30.5 µM (inactive); with SNB-19, 11.7 µM (inactive); with SNB-75, 23.4 µM (inactive); in the experiment with SR it was 13 µM (inactive); in the experiment with UO-31 it was 15.1 µM (inactive).

Regarding `COC(=O)C(=C/c1ccc(OC)cc1)/C(C(=O)O)=C(/C)c1ccccc1`, the GI50 in the experiment on 786-0, in the experiment with CAKI-1, with HCT-116, in the experiment on HL-60, in the experiment on KM12 and with NCI-H226 was > 100 µM (inactive) throughout. The GI50 in the experiment with NCI-H23, with OVCAR-4, in the experiment on OVCAR-8, in the experiment with RXF 393, with SK-MEL-2 and with SK-MEL-5 was > 100 µM (inactive) in each case. The GI50 in the experiment with SK-OV-3, with SNB-19, with SNB-75, in the experiment on SR and in the experiment on UO-31 was > 100 µM (inactive) in each case.

(Values after ChEMBL document CHEMBL1201862, “PubChem BioAssay data set” (2004).)
